Laboratory results: PubChem BioAssay AID248 (DTP/NCI, 2004)
Several values for one entry are separate records, joined by “and”; a condition that tells them apart may be missing. Equal entries are not always repeated. Toxic doses and inconclusive results are not listed. Cut-off read from the data, not from the text of the source: active = T/C of 150% or more; inactive = T/C below 125%.

Test system: L1210 leukemia ip in BDF1 mice, survival T/C
Assay: NCI In Vivo Anticancer Drug Screen. Data for tumor model L1210 Leukemia (intraperitoneal) in B6D2F1 (BDF1) mice
Conditions: endpoint: mean survival time, higher = longer survival
Method in brief: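 Ratio derived from survival: compound-dosed mice over vehicle-dosed mice, all bearing a transplantable tumor.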

[1] = dose: 100.0 mg/kg/injection, schedule: Q01DX001 (ip), vehicle: Klucel (hydroxypropylcellulose) (HPC)
[2] = dose: 100.0 mg/kg/injection, schedule: Q04DX003 (ip), vehicle: Klucel (hydroxypropylcellulose) (HPC)
[3] = dose: 200.0 mg/kg/injection, schedule: Q01DX001 (ip), vehicle: Klucel (hydroxypropylcellulose) (HPC)
[4] = dose: 200.0 mg/kg/injection, schedule: Q04DX003 (ip), vehicle: Klucel (hydroxypropylcellulose) (HPC)
[5] = dose: 400.0 mg/kg/injection, schedule: Q01DX001 (ip), vehicle: Klucel (hydroxypropylcellulose) (HPC)
[6] = dose: 400.0 mg/kg/injection, schedule: Q04DX003 (ip), vehicle: Klucel (hydroxypropylcellulose) (HPC)
[7] = dose: 25.0 mg/kg/injection, schedule: Q04DX003 (ip), vehicle: saline with Tween-80
[8] = dose: 50.0 mg/kg/injection, schedule: Q04DX003 (ip), vehicle: saline with Tween-80
[9] = dose: 100.0 mg/kg/injection, schedule: Q04DX003 (ip), vehicle: saline with Tween-80
[10] = dose: 100.0 mg/kg/injection, schedule: Q04DX003 (ip), vehicle: saline
[11] = dose: 200.0 mg/kg/injection, schedule: Q04DX003 (ip), vehicle: saline
[12] = dose: 400.0 mg/kg/injection, schedule: Q04DX003 (ip), vehicle: saline
[13] = dose: 100.0 mg/kg/injection, schedule: Q01DX001 (ip), vehicle: saline
[14] = dose: 200.0 mg/kg/injection, schedule: Q01DX001 (ip), vehicle: saline
[15] = dose: 400.0 mg/kg/injection, schedule: Q01DX001 (ip), vehicle: saline
[16] = dose: 100.0 mg/kg/injection, schedule: Q04DX002 (ip), vehicle: saline
[17] = dose: 200.0 mg/kg/injection, schedule: Q04DX002 (ip), vehicle: saline
[18] = dose: 50.0 mg/kg/injection, schedule: Q01DX001 (ip), vehicle: saline
[19] = dose: 100.0 mg/kg/injection, schedule: Q01DX009 (ip), vehicle: saline with Tween-80
[20] = dose: 50.0 mg/kg/injection, schedule: Q01DX009 (ip), vehicle: Klucel (hydroxypropylcellulose) (HPC)
[21] = dose: 100.0 mg/kg/injection, schedule: Q01DX009 (ip), vehicle: Klucel (hydroxypropylcellulose) (HPC)
[22] = dose: 200.0 mg/kg/injection, schedule: Q01DX009 (ip), vehicle: Klucel (hydroxypropylcellulose) (HPC)
[23] = dose: 400.0 mg/kg/injection, schedule: Q01DX009 (ip), vehicle: Klucel (hydroxypropylcellulose) (HPC)

Measured: T/C

CC[C@H](/C=C/[C@@H](C)[C@H]1CC[C@H]2[C@@H]3CC=C4C[C@@H](OC(=O)/C=C\C(=O)O)CC[C@]4(C)[C@H]3CC[C@]12C)C(C)C
inactive: dose: 12.5 mg/kg/injection, schedule: Q01DX009 (ip), vehicle: water 96 % of control | dose: 25.0 mg/kg/injection, schedule: Q01DX009 (ip), vehicle: water 86 % of control | dose: 25.0 mg/kg/injection, schedule: Q04DX003 (ip), vehicle: other 105 % of control | dose: 50.0 mg/kg/injection, schedule: Q04DX003 (ip), vehicle: other 92 % of control

O=C(COc1ccc(Cl)cc1)Nc1cc(Cl)ccc1Cl
inactive: [1] 113 % of control | [2] 88 % of control | [3] 95 % of control | [4] 88 % of control | [5] 97 % of control | [6] 90 % of control

COC1=C(Br)C(=O)C(OC)=C(Br)C1=O
inactive: [7] 95 % of control | [8] 92 % of control | [9] 91 % of control

CCOC(=O)CCc1ccc(O)c(O)c1
inactive: dose: 100.0 mg/kg/injection, schedule: Q01DX009 (ip), vehicle: saline 100 % of control | [10] 92 % of control | dose: 200.0 mg/kg/injection, schedule: Q01DX009 (ip), vehicle: saline 102 % of control | [11] 111 % of control | [12] 101 % of control

CC1(C)c2ccc([nH]2)C(C)(C)c2ccc([nH]2)C(C)(C)c2c[nH]cc2C(C)(C)c2ccc1[nH]2
inactive: [13] 102 % of control | [14] 94 % of control | [15] 97 % of control

O=c1[nH]c2ccccc2cc1Br
inactive: dose: 100.0 mg/kg/injection, schedule: Q01DX001 (ip), vehicle: other 96 % of control | dose: 200.0 mg/kg/injection, schedule: Q01DX001 (ip), vehicle: other 96 % of control | dose: 400.0 mg/kg/injection, schedule: Q01DX001 (ip), vehicle: other 105 % of control

CCSC(SCC)C(N)C(O)C(O)C(O)CO (stereo unspecified)
inactive: dose: 50.0 mg/kg/injection, schedule: Q04DX002 (ip), vehicle: saline 103 % of control | [16] 103 % of control | [17] 109 % of control

NC1(CSS(=O)(=O)O)CCN1 (stereo unspecified)
inactive: dose: 10.0 mg/kg/injection, schedule: Q04DX002 (ip), vehicle: saline 106 % of control | dose: 20.0 mg/kg/injection, schedule: Q04DX002 (ip), vehicle: saline 98 % of control | dose: 40.0 mg/kg/injection, schedule: Q04DX002 (ip), vehicle: saline 109 % of control

CC(=O)OC(C(C)=O)c1ccccc1 (stereo unspecified)
inactive: [18] 101 % of control | [13] 101 % of control | [14] 98 % of control | [15] 101 % of control

CC1CC(C)(C)N=C(C(Cc2ccccc2)CC(O)c2ccccc2)O1 (stereo unspecified)
inactive: [7] 94 % of control | [8] 92 % of control | [9] 86 % of control and 90 % of control

COc1c(C)ccc(/C=N/NC(=O)c2ccncc2)c1C
inactive: dose: 100.0 mg/kg/injection, schedule: Q04DX002 (ip), vehicle: carboxymethylcellulose (CMC) 95 % of control | dose: 200.0 mg/kg/injection, schedule: Q04DX002 (ip), vehicle: carboxymethylcellulose (CMC) 95 % of control | dose: 400.0 mg/kg/injection, schedule: Q04DX002 (ip), vehicle: carboxymethylcellulose (CMC) 92 % of control

N#Cc1c(C#N)c(/N=C/c2ccccc2)n(/N=C/c2ccccc2)c1N
inactive: dose: 87.5 mg/kg/injection, schedule: Q04DX003 (ip), vehicle: other 91 % of control | dose: 175.0 mg/kg/injection, schedule: Q04DX003 (ip), vehicle: other 93 % of control | dose: 350.0 mg/kg/injection, schedule: Q04DX003 (ip), vehicle: other 95 % of control

CCC(C#N)C1=CCCCCC1 (stereo unspecified)
inactive: dose: 12.5 mg/kg/injection, schedule: Q04DX003 (ip), vehicle: saline with Tween-80 103 % of control | dose: 25.0 mg/kg/injection, schedule: Q01DX009 (ip), vehicle: saline with Tween-80 97 % of control | [7] 97 % of control and 101 % of control | dose: 50.0 mg/kg/injection, schedule: Q01DX009 (ip), vehicle: saline with Tween-80 102 % of control | [8] 110 % of control | [19] 107 % of control | [9] 101 % of control

CNCc1ccccc1Cc1ccccc1
inactive: dose: 75.0 mg/kg/injection, schedule: Q01DX001 (ip), vehicle: saline 100 % of control | dose: 150.0 mg/kg/injection, schedule: Q01DX001 (ip), vehicle: saline 97 % of control | dose: 300.0 mg/kg/injection, schedule: Q01DX001 (ip), vehicle: saline 95 % of control

Cc1cc(N(CCCl)CCCl)ccc1C=Nc1ccccc1C(=O)O
inactive: [18] 94 % of control | [20] 106 % of control | [1] 94 % of control | [13] 105 % of control | [21] 113 % of control | [3] 103 % of control | [14] 103 % of control | [22] 120 % of control | [5] 101 % of control | [15] 105 % of control | [23] 98 % of control

CCCCCCCNC(C)(C)C(SS)c1ccc(Cl)cc1 (stereo unspecified)
inactive: dose: 100.0 mg/kg/injection, schedule: Q01DX009 (sc), vehicle: olive oil, sesame oil, peanut oil 102 % of control | dose: 200.0 mg/kg/injection, schedule: Q01DX009 (sc), vehicle: olive oil, sesame oil, peanut oil 100 % of control | dose: 400.0 mg/kg/injection, schedule: Q01DX009 (sc), vehicle: olive oil, sesame oil, peanut oil 101 % of control

CC(=O)COc1ccccc1
inactive: [21] 108 % of control | [2] 100 % of control | [22] 110 % of control | [4] 97 % of control | [23] 108 % of control | [6] 95 % of control

CC(=O)OCC1OC(S[As](C)C)C(OC(C)=O)C(OC(C)=O)C1OC(C)=O (stereo unspecified)
inactive: [21] 101 % of control | [2] 101 % of control | [22] 103 % of control | [4] 100 % of control | [6] 100 % of control

COc1ccc(C(=O)NC(=S)Nc2cccc([N+](=O)[O-])c2)cc1
inactive: [19] 95 % of control and 88 % of control | [16] 88 % of control | dose: 200.0 mg/kg/injection, schedule: Q01DX009 (ip), vehicle: saline with Tween-80 88 % of control and 89 % of control | [17] 91 % of control | dose: 400.0 mg/kg/injection, schedule: Q01DX009 (ip), vehicle: saline with Tween-80 103 % of control | dose: 400.0 mg/kg/injection, schedule: Q04DX002 (ip), vehicle: saline 98 % of control

c1ccc(COc2ccccn2)cc1
inactive: [20] 95 % of control | [21] 97 % of control | [2] 98 % of control | [4] 98 % of control

CCC(=O)P(=O)(OC)OC
inactive: [10] 102 % of control | [11] 102 % of control | [12] 95 % of control
